From patent EP0484596A1, “Organotin compounds and anti-tumor compositions containing them” (priority 1990, dated 1992)

Legend:
MCF-7 mammary carcinoma = assay: in vitro cell growth inhibition, PIT method, MCF-7; assay type: cell-based, human; details: amount which inhibits 50% of the cell growth
Method: (§1) The compounds (1), (2) and (3) as well as their starting compounds, i.e. (4), (5) and (6) respectively, [drawing 8] were tested in vitro against the following human tumor cell lines • MCF-7 mammary carcinoma • WiDr colon tumor cells
(§2) The tests were carried out according to the method of R. van Lambalgen and P. Lelieveld, The PIT Method: an automated in vitro technique for drug toxicity testing. Invest. New Drug 5, 161-165 (1987).
(§3) The ID50 values in ng/ml for the above compounds were determined, i.e. the amount which inhibits 50% of the cell growth.

WiDr colon tumor cells = assay: in vitro cell growth inhibition, PIT method, WiDr; assay type: cell-based, human; details: amount which inhibits 50% of the cell growth
Method: as §1, §2, §3

Question: How did the ID50 (MCF-7 mammary carcinoma) turn out when `N.N.[Cl][Pt][Cl]` [Cis-platin] was run?
Answer: 0.85 µg/mL

Question: What about the ID50 (WiDr colon tumor cells) of the same molecule?
Answer: 0.624 µg/mL
